Data published in PubChem BioAssay (NCI).
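Following 48 hours of exposure in 96-well plates, responses at five concentrations were used to interpolate endpoints linearly. Here, GI50 denotes the concentration required for 50% inhibition of growth. At the TGI there is no net growth.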

Columns and labels:
Experiment in all cases: NCI anticancer screen, dose series, 48 h
[1] = test system: NCI-H522 lung
[2] = test system: A498 renal
[3] = test system: UACC-62 melanoma
[4] = test system: UACC-257 melanoma
[5] = test system: CAKI-1 renal
[6] = test system: HOP-62 NSCLC
[7] = test system: TK-10 renal
[8] = test system: HCC-2998 colon
[9] = test system: SF-539 CNS
[10] = test system: OVCAR-4 ovarian
[11] = test system: SR leukemia
[12] = test system: U251 CNS
[13] = test system: MALME-3M melanoma
[14] = test system: KM12 colon
[15] = test system: SF-268 CNS
[16] = test system: SF-295 CNS
[17] = test system: PC-3 prostate
[18] = test system: ACHN renal
[19] = test system: SK-MEL-5 melanoma
[20] = test system: RPMI-8226 leukemia
[21] = test system: NCI/ADR-RES ovarian
[22] = test system: OVCAR-3 ovarian
[23] = test system: OVCAR-8 ovarian
[24] = test system: BT-549 breast
[25] = test system: MDA-MB-231 breast
[26] = test system: SN12C renal
[27] = test system: CCRF-CEM leukemia
[28] = test system: NCI-H226 lung
[29] = test system: SK-MEL-28 melanoma
[30] = test system: SK-OV-3 ovarian
[31] = test system: K-562 leukemia
[32] = test system: NCI-H23 lung
[33] = test system: HS 578T breast
[34] = test system: OVCAR-5 ovarian
[35] = test system: UO-31 renal
[36] = test system: M14 melanoma
[37] = test system: HT29 colon
[38] = test system: HCT-15 colon
[39] = test system: RXF 393 renal
[40] = test system: DU-145 prostate
[41] = test system: SNB-75 CNS
[42] = test system: LOX IMVI melanoma
[43] = test system: HCT-116 colon
[44] = test system: SW-620 colon
[45] = test system: MCF7 breast
[46] = test system: NCI-H460 lung
[47] = test system: MDA-MB-435
[48] = test system: COLO 205 colon
[49] = test system: T-47D breast
[50] = test system: A549 NSCLC
[51] = test system: IGROV1 ovarian
[52] = test system: MOLT-4 leukemia
[53] = test system: 786-0 renal
[54] = test system: SNB-19 CNS
[55] = test system: SK-MEL-2 melanoma
[56] = test system: HL-60(TB) leukemia
[57] = test system: HOP-92 NSCLC

SMILES: CCOC(=O)c1ccc(NC(=O)NC2=NCCS2)cc1
- GI50 [1]: 0.352 µM
- GI50 [2]: 0.34 µM
- TGI [2]: 2.24 µM
- GI50 [3]: 7.96 µM
- TGI [3]: > 100 µM
- GI50 [4]: > 100 µM
- TGI [4]: > 100 µM
- GI50 [5]: 1.39 µM
- TGI [5]: > 100 µM
- GI50 [6]: 1.75 µM
- TGI [6]: > 100 µM
- GI50 [7]: > 100 µM
- TGI [7]: > 100 µM
- GI50 [8]: 3.91 µM
- TGI [8]: > 76.7 µM
- GI50 [9]: 0.381 µM
- TGI [9]: 2.27 µM
- GI50 [10]: 56.1 µM
- TGI [10]: > 100 µM
- GI50 [11]: 0.973 µM
- TGI [11]: > 100 µM
- GI50 [12]: 0.899 µM
- TGI [12]: > 100 µM
- GI50 [13]: 0.465 µM
- TGI [13]: > 100 µM
- GI50 [14]: 0.434 µM
- TGI [14]: > 100 µM
- GI50 [15]: 3.5 µM
- TGI [15]: > 100 µM
- GI50 [16]: 0.619 µM
- TGI [16]: 6.13 µM
- GI50 [17]: 0.451 µM
- TGI [17]: > 100 µM
- GI50 [18]: 45.9 µM
- TGI [18]: > 100 µM
- GI50 [19]: 2.7 µM
- TGI [19]: > 100 µM
- GI50 [20]: 1.93 µM
- TGI [20]: > 100 µM
- GI50 [21]: 0.505 µM
- TGI [21]: > 49.6 µM
- GI50 [22]: 0.289 µM
- TGI [22]: 0.897 µM
- GI50 [23]: 1.98 µM
- TGI [23]: > 100 µM
- GI50 [24]: 0.84 µM
- TGI [24]: > 40.1 µM
- GI50 [25]: 1.64 µM
- TGI [25]: > 100 µM
- GI50 [26]: 0.954 µM
- TGI [26]: > 100 µM
- GI50 [27]: 0.433 µM
- TGI [27]: > 100 µM
- GI50 [28]: 3.14 µM
- TGI [28]: > 100 µM
- GI50 [29]: 64.9 µM
- TGI [29]: > 100 µM
- GI50 [30]: 1.03 µM
- TGI [30]: 7.76 µM
- GI50 [31]: 10.5 µM
- TGI [31]: > 100 µM
- GI50 [32]: 3.61 µM
- TGI [32]: > 100 µM
- GI50 [33]: 1.97 µM
- TGI [33]: > 100 µM
- GI50 [34]: 99.1 µM
- TGI [34]: > 100 µM
- GI50 [35]: 5.13 µM
- TGI [35]: > 100 µM
- GI50 [36]: 2.66 µM
- TGI [36]: > 100 µM
- GI50 [37]: > 93.5 µM
- TGI [37]: > 100 µM
- GI50 [38]: 8.54 µM
- TGI [38]: > 100 µM
- GI50 [39]: 0.429 µM
- TGI [39]: 3.3 µM
- GI50 [40]: 1.71 µM
- TGI [40]: > 100 µM
- GI50 [41]: 0.252 µM
- TGI [41]: > 100 µM
- GI50 [42]: 39.9 µM
- TGI [42]: > 100 µM
- GI50 [43]: 50.9 µM
- TGI [43]: > 100 µM
- GI50 [44]: 22.9 µM
- TGI [44]: > 100 µM
- GI50 [45]: 0.517 µM
- TGI [45]: > 100 µM
- GI50 [46]: 3.2 µM
- TGI [46]: > 100 µM
- GI50 [47]: 3.42 µM
- TGI [47]: 19.4 µM
- GI50 [48]: 40.8 µM
- TGI [48]: > 100 µM
- GI50 [49]: 4.13 µM
- TGI [49]: > 100 µM
- GI50 [50]: 0.584 µM
- TGI [50]: > 100 µM
- GI50 [51]: 2.11 µM
- TGI [51]: > 100 µM
- GI50 [52]: 1.17 µM
- TGI [52]: > 100 µM
- GI50 [53]: 0.693 µM
- TGI [53]: > 100 µM
- GI50 [54]: 2.86 µM
- TGI [54]: > 100 µM
- GI50 [55]: 24.6 µM
- TGI [55]: 97.9 µM
- GI50 [56]: 0.503 µM
- TGI [56]: > 100 µM
- GI50 [57]: 0.418 µM
- TGI [57]: > 100 µM

SMILES: COc1ccc(-c2cnnn2-c2nonc2-n2cccc2)cc1OC
- GI50 [1]: 2.32 µM
- TGI [1]: 11.3 µM
- GI50 [2]: 2.95 µM
- TGI [2]: 23 µM
- GI50 [3]: 5.42 µM
- TGI [3]: > 100 µM
- GI50 [4]: 9.61 µM
- TGI [4]: > 100 µM
- GI50 [5]: 3.39 µM
- TGI [5]: > 100 µM
- GI50 [6]: 5.21 µM
- TGI [6]: > 100 µM
- GI50 [7]: 22.6 µM
- TGI [7]: > 100 µM
- GI50 [8]: 5.53 µM
- TGI [8]: 37.7 µM
- GI50 [9]: 3.44 µM
- TGI [9]: 22.2 µM
- GI50 [10]: 18.6 µM
- TGI [10]: > 100 µM
- GI50 [11]: 1.9 µM
- TGI [11]: > 100 µM
- GI50 [13]: 3.86 µM
- TGI [13]: > 100 µM
- GI50 [14]: 2.73 µM
- TGI [14]: > 100 µM
- GI50 [15]: 8.06 µM
- TGI [15]: > 100 µM
- GI50 [16]: 3.94 µM
- TGI [16]: 44.6 µM
- GI50 [17]: 14.1 µM
- TGI [17]: > 100 µM
- GI50 [18]: 7.8 µM
- TGI [18]: > 100 µM
- GI50 [19]: 4.6 µM
- TGI [19]: 21.1 µM
- GI50 [20]: 4.85 µM
- TGI [20]: > 100 µM
- GI50 [21]: 2.02 µM
- TGI [21]: 5.99 µM
- GI50 [22]: 3.97 µM
- TGI [22]: > 100 µM
- GI50 [23]: 5.29 µM
- TGI [23]: > 100 µM
- GI50 [24]: 4.06 µM
- TGI [24]: > 100 µM
- GI50 [25]: 5.35 µM
- TGI [25]: 69.4 µM
- GI50 [26]: 5.71 µM
- TGI [26]: > 100 µM
- GI50 [27]: 3.3 µM
- TGI [27]: > 100 µM
- GI50 [28]: 16.2 µM
- TGI [28]: > 100 µM
- GI50 [29]: 7.74 µM
- TGI [29]: > 100 µM
- GI50 [30]: 5.18 µM
- TGI [30]: 29.8 µM
- GI50 [31]: 1.37 µM
- TGI [31]: > 100 µM
- GI50 [32]: 4.09 µM
- TGI [32]: > 100 µM
- GI50 [33]: 4.55 µM
- TGI [33]: 75.7 µM
- GI50 [34]: 17.8 µM
- TGI [34]: > 100 µM
- GI50 [35]: 6.27 µM
- TGI [35]: > 100 µM
- GI50 [36]: 3.28 µM
- TGI [36]: > 100 µM
- GI50 [37]: 3.31 µM
- TGI [37]: > 100 µM
- GI50 [38]: 2.38 µM
- TGI [38]: > 100 µM
- GI50 [39]: 2.98 µM
- TGI [39]: 40.2 µM
- GI50 [40]: 7.95 µM
- TGI [40]: > 100 µM
- GI50 [41]: 4.19 µM
- TGI [41]: 39.2 µM
- GI50 [43]: 4.19 µM
- TGI [43]: > 100 µM
- GI50 [44]: 3.61 µM
- TGI [44]: > 100 µM
- GI50 [45]: 3.17 µM
- TGI [45]: > 100 µM
- GI50 [46]: 3.75 µM
- TGI [46]: > 100 µM
- GI50 [47]: 0.716 µM
- TGI [47]: 3.01 µM
- GI50 [48]: 3.64 µM
- TGI [48]: 14.8 µM
- GI50 [49]: 3.79 µM
- TGI [49]: > 100 µM
- GI50 [50]: 4.15 µM
- TGI [50]: > 100 µM
- GI50 [51]: 5.13 µM
- TGI [51]: > 100 µM
- GI50 [52]: 3.63 µM
- TGI [52]: > 100 µM
- GI50 [53]: 7.15 µM
- TGI [53]: > 100 µM
- GI50 [54]: 13.2 µM
- TGI [54]: > 100 µM
- GI50 [56]: 3.09 µM
- TGI [56]: 15.4 µM
